{
  "source": "patent US8053461B2",
  "about": "“Oxindole derivative” (Theravalues Corporation, priority 2006, dated 2011)",
  "key": {"[1]": {"target": "T1, recombinant GST-Pim-1 kinase (Homo sapiens, UniProt P11309)", "T1 construct": "GST", "T1 sequence (P11309 whole entry)": "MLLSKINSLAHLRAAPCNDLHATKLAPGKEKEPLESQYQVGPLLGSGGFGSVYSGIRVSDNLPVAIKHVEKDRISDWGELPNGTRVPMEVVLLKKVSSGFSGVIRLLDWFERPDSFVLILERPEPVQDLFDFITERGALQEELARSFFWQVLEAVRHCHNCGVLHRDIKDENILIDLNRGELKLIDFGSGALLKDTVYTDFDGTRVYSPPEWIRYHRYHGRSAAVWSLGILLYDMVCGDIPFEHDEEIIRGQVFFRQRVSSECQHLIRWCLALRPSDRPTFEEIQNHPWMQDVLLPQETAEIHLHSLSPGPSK", "experiment": "In vitro system for measurement of Pim-1 kinase activity (phosphorylation of biotinylated p21 peptide, OD450)", "type": "biochemical", "conditions": "ATP 10 μM, 25° C., 30 minutes; read-out: 50% inhibitory concentration (IC50) of Pim-1 kinase activity", "description": "The sensitivity (IC50: inhibitory concentration of 50% of activity) and concentration dependence of these novel compounds to inhibition of Pim-1 activity were studied (using the following system).\nIn Vitro System for Measurement of Pim-1 Kinase Activity:\n(1) Add a biotinylated p21 peptide (1 mM) as a substrate to be phosphorylated by Pim-1 and a recombinant GST-Pim-1 kinase (18 μg/ml) to a kinase buffer.\n(2) Add a test compound (dissolved in 2% DMSO) or 2% DMSO (a solvent control) thereto.\n(3) Add ATP (10 μM) thereto and incubate the mixture at 25° C. for 30 minutes (initiate a kinase reaction).\n(4) Add EDTA (10 mM) thereto to stop the reaction.\n(5) Add 10 μl of the kinase reaction mixture to a 96-well plate (which has been blocked in advance) coated with avidin, and incubate the plate at room temperature for 60 minutes.\n(6) Wash the wells with a washing buffer three times.\n(7) Add a diluted solution (1:500) of an antibody which recognizes phosphorylated p21 (Thr145) to the wells in an amount of 100 μl per well and incubate the plate for 90 minutes.\n(8) Wash the wells with a washing buffer three times.\n(9) Add a diluted solution (1:2000) of a secondary antibody which […] to the wells in an amount of 100 μl per well and incubate the plate for 60 minutes.\n(10) Wash the wells with a washing buffer five times.\n(11) Add a substrate (TMB) for peroxidase to the wells and incubate the plate for 8 minutes. Then, stop the reaction with 2 M H2SO4 and perform the colorimetric determination using a microplate reader (OD450)."}, "[2]": {"tested_on": "esophageal squamous cell carcinoma cell line (T.Tn)", "experiment": "Cytotoxicity, MTS method", "type": "cell-based", "description": "(§1) Various cancer cell lines were seeded in 96-well plates at a density of 3 to 5000 cells per well, and on the following day, any of the novel compounds was added thereto such that the final concentrations of the compounds were 0 to 100 μM (the concentration of the solvent DMSO was 0.5%) and the plates were incubated for 24 to 72 hours. The cytotoxicity to cancer cells can be examined by calculating the viable cell count by the MTS method (CellTiter 96 Aqueous One Solution Cell Proliferation Assay, Promega) after incubation. Here, the MTS method is a viable cell count calculation method using the fact that a tetrazolium compound (MTS) is converted into a chromogenic formazan product by an oxidoreductase of viable cells. In the measurement method, to each well of a 96-well plate containing 100 μl of a culture medium and sample cells, 20 μl of CellTiter 96 Aqueous One Solution Reagent is added and the plate was incubated in an incubator at 37° C. for 90 to 120 minutes, and then, the absorbance at 490 nm is measured using a 96-well plate reader."}, "[3]": {"tested_on": "lung cancer cell line (A549)", "experiment": "Cytotoxicity, MTS method", "type": "cell-based", "description": "as §1"}, "[4]": {"tested_on": "pancreatic cancer cell line (BxPC-3)", "experiment": "Cytotoxicity, MTS method, time course", "type": "cell-based", "conditions": "FIG. 4", "description": "as §1"}, "[5]": {"tested_on": "uterine cancer cell line (HeLa)", "experiment": "Cytotoxicity, MTS method", "type": "cell-based", "conditions": "at 100 μM and 10 μM, even at 1 μM to some cell lines, FIG. 2", "description": "as §1"}, "[6]": {"tested_on": "normal renal cell line (293)", "experiment": "Cytotoxicity, MTS method", "type": "cell-based", "conditions": "at 100 μM and 10 μM, even at 1 μM to some cell lines, FIG. 2", "description": "as §1"}, "[7]": {"tested_on": "pancreatic cancer cell line (MiaPaCa-2)", "experiment": "Cytotoxicity, MTS method", "type": "cell-based", "conditions": "at 100 μM and 10 μM, even at 1 μM to some cell lines, FIG. 2", "description": "as §1"}, "[8]": {"tested_on": "oral squamous cell carcinoma cell line (HSC-3)", "experiment": "Cytotoxicity, MTS method", "type": "cell-based", "conditions": "at 100 μM and 10 μM, even at 1 μM to some cell lines, FIG. 2", "description": "as §1"}, "[9]": {"tested_on": "prostate cancer cell line (PC-3)", "experiment": "Cytotoxicity, MTS method, time course", "type": "cell-based", "conditions": "time course observation of viable cell count, FIG. 3", "description": "as §1"}},
  "note": "Where a name gives a salt, the structure may show the parent alone.",
  "data": [
    {"compound": "CCCC(=O)N1C(=O)/C(=C/c2ccc(/C=C3/C(=O)N(C(=O)CCC)c4ccccc43)o2)c2ccccc21", "note": "[compound (7), (3E)-1-butyryl-3-[((5E)-((1-butyryl-2-oxoindolin-3-ylidene)methyl)furan-2-yl)methylene]indolin-2-one]", "values": [
      {"measurement": "IC50", "setting": "[1]", "result": 26, "unit": "nM"}
    ]},
    {"compound": "CC(=O)N1C(=O)/C(=C/c2ccc(/C=C3/C(=O)Nc4ccc(C(=O)O)cc43)o2)c2ccccc21", "note": "[compound (9), (3E)-3-((5-((E)-(1-acetyl-2-oxoindolin-3-ylidene)methyl)furan-2-yl)methylene)-2-oxoindoline-5-carboxylic acid sodium salt]", "values": [
      {"measurement": "IC50", "setting": "[1]", "result": 1400, "unit": "nM"}
    ]},
    {"compound": "CC(=O)N1C(=O)/C(=C/c2ccc(/C=C3/C(=O)N(C(C)=O)c4ccccc43)o2)c2ccccc21", "note": "[compound (2), (3E)-1-acetyl-3-[((5E)-((1-acetyl-2-oxoindolin-3-ylidene)methyl)furan-2-yl)methylene]indolin-2-one]", "values": [
      {"measurement": "IC50", "setting": "[1]", "result": 10, "unit": "nM"},
      {"measurement": "cell proliferation inhibitory effect and cell lethal effect", "setting": "[2]; esophageal squamous cell carcinoma cell line (T.Tn), time course, FIG. 4", "result": "has a cell proliferation inhibitory effect and a cell lethal effect"},
      {"measurement": "cell proliferation inhibitory effect and cell lethal effect", "setting": "[3]; lung cancer cell line (A549), time course, FIG. 4", "result": "has a cell proliferation inhibitory effect and a cell lethal effect"},
      {"measurement": "cell proliferation inhibitory effect and cell lethal effect", "setting": "[4]", "result": "has a cell proliferation inhibitory effect and a cell lethal effect"}
    ]},
    {"compound": "CC(=O)N1C(=O)/C(=C/c2ccc(/C=C3/C(=O)Nc4ccccc43)o2)c2ccccc21", "note": "[compound (3), (3E)-3-((5-((E)-(1-acetyl-2-oxoindolin-3-ylidene)methyl)furan-2-yl)methylene)indolin-2-one]", "values": [
      {"measurement": "IC50", "setting": "[1]", "result": 800, "unit": "nM"}
    ]},
    {"compound": "CC(=O)N1C(=O)/C(=C/c2ccc(/C=C3/C(=O)Nc4cc(C(=O)O)ccc43)o2)c2ccccc21", "note": "[compound (10), (3E)-3-((5-((E)-(1-acetyl-2-oxoindolin-3-ylidene)methyl)furan-2-yl)methylene)-2-oxoindoline-6-carboxylic acid sodium salt]", "values": [
      {"measurement": "IC50", "setting": "[1]", "result": 580, "unit": "nM"}
    ]},
    {"compound": "O=C1Nc2ccccc2/C1=C\\c1ccc(/C=C2/C(=O)Nc3ccccc32)o1", "note": "[compound (1), (3E)-3[(5-((E)-(2-oxoindolin-3-ylidene)methyl)furan-2-yl)methylene]indoline-2-one]", "values": [
      {"measurement": "IC50", "setting": "[1]", "result": 50, "unit": "nM"},
      {"measurement": "cytotoxicity", "setting": "[5]", "result": "remarkable cytotoxicity"},
      {"measurement": "cytotoxicity", "setting": "[6]", "result": "remarkable cytotoxicity"},
      {"measurement": "cytotoxicity", "setting": "[7]", "result": "remarkable cytotoxicity"},
      {"measurement": "cytotoxicity", "setting": "[2]; T.Tn, at 100 μM and 10 μM, even at 1 μM to some cell lines, FIG. 2", "result": "remarkable cytotoxicity"},
      {"measurement": "cytotoxicity", "setting": "[3]; A549, at 100 μM and 10 μM, even at 1 μM to some cell lines, FIG. 2", "result": "remarkable cytotoxicity"},
      {"measurement": "cytotoxicity", "setting": "[8]", "result": "remarkable cytotoxicity"},
      {"measurement": "cell lethal effect", "setting": "[9]", "result": "has a cell lethal effect"}
    ]}
  ]
}
